# Source: article PMC9963659, “Novel 2-Thiouracil-5-Sulfonamide Derivatives: Design, Synthesis, Molecular Docking, and Biological Evaluation as Antioxidants with 15-LOX Inhibition” (Molecules, 2023)
# Several values for one entry are separate records, joined by “and”; a condition that tells them apart may be missing. Equal values may be shown once.
# Tests used:
# [1] = Lipid peroxidation assay (FeCl2/H2O2-stimulated linoleic acid peroxidation); type: biochemical; details: mean ± SEM of three experiments
# [2] = DPPH radical scavenging assay; type: biochemical; details: mean ± SEM of three experiments
# Method: The antioxidant potential of all target compounds (3–9) was determined using DPPH radical scavenging assay in comparison with ascorbic acid (AA) as the control treatment.
# The mechanism of antioxidants as DPPH radical scavengers is based on their hydrogen-donation ability as hydrogen atoms or an electron transfer from the compound to the DPPH to form DPPH-H. The results of DPPH reduction are presented in Table 2, Figure 7.
# The DPPH scavenging activity of all novel synthesized compounds (3–9) was measured as previously described (see Supplementary Materials).
# 1-Biological Evaluation Details: a-In-vitro Assays for biological antioxidant Activity
# - DPPH scavenging method.
# A 96-well plate was filled with 100 µL of the investigated compounds at various concentrations (12.5, 25, 50, 100, and 200 µg/mL ). The plate was then incubated at room temperature for 30 min while being protected from light by adding 100 µL of 100µM DPPH methanolic solution to each well. At a λ517 nm. the solution's absorbance was measured.
# The positive control was ascorbic acid, and the negative control was DMSO. According to the following equation, the percentage of DPPH scavenging activity was determined:
# % of DPPH scavenging = [(A control -A sample) / A control] x100. where A control is the absorbance of the control reaction (with all reagents except the test compound), and A sample is the absorbance of the test sample. Linear regression analysis was performed to calculate drug concentration showing 50% free radical inhibition activity (IC50). All tests were performed in triplicates. […]
# [3] = Hydrogen peroxide scavenging assay; type: biochemical; details: mean ± SEM of three experiments
# Method: H2O2 assay is used to estimate the scavenging power of the target compounds (4–9) to H2O2.
# The hydrogen peroxide (H2O2) scavenging activity of all novel synthesized compounds 3–9 was measured as previously reported (see Supplementary Materials).
# 1-Biological Evaluation Details: a-In-vitro Assays for biological antioxidant Activity […]
# Linear regression analysis was performed to calculate drug concentration showing 50% free radical inhibition activity (IC50). All tests were performed in triplicates.
# -Scavenging of hydrogen peroxide
# In this method, the decay or loss of hydrogen peroxide can be quantified spectrophotometrically at 230 nm when a scavenger is incubated with it. The procedure was applied with a few changes. In phosphate buffered saline, hydrogen […]
# peroxide (20 mM) solution was prepared in phosphate buffered saline (PBS, pH 7.4). In order to make different concentrations of 1 ml of the tested substances (3–9) or standards in methanol, 2 ml of hydrogen peroxide solution in PBS was added. After 10 minutes, the absorbance of H2O2 was measured at 230 nm in comparison to an ascorbic acid (AA) reference solution that contained phosphate buffer but no H2O2.
# % of H2O2 scavenging = [(A control -A sample) / A control] x100. […]
# Soybean 15-LOX enzyme = target: T1, Soybean 15-LOX enzyme (Glycine max, UniProt P08170); assay: In vitro 15-lipoxygenase inhibition (Cayman Lipoxygenase Inhibitor Screening Assay Kit); type: biochemical; details: Soybean 15-LOX, arachidonic acid substrate; mean ± SEM of three experiments
# T1 construct: purchased Cayman Chemical 760700
# T1 sequence (P08170 1-839): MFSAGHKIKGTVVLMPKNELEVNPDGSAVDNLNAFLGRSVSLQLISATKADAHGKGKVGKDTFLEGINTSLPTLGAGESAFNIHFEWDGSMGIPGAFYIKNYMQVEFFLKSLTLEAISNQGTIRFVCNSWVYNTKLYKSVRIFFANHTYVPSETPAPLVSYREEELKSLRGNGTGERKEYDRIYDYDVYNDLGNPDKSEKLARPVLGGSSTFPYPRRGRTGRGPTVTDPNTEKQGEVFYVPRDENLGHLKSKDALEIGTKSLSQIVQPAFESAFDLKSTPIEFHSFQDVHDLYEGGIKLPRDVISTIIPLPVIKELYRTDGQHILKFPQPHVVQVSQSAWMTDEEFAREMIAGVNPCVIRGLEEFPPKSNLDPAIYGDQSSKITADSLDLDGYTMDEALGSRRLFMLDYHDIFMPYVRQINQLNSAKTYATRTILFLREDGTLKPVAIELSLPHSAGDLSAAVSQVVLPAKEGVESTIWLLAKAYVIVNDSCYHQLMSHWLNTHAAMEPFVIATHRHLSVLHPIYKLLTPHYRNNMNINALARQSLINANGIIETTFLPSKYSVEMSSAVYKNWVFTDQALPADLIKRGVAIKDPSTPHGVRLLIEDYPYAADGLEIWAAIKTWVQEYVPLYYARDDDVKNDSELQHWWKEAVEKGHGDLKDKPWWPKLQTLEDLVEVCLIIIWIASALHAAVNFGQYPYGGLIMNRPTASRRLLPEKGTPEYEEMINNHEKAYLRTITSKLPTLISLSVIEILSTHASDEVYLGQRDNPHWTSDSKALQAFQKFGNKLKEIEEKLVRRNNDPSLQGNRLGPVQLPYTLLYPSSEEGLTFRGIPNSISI
# Method: 90 µL of 15-LOX was pipetted into a 96-well plate quickly. The test chemical was then dissolved in DMSO in 10 µL portions at concentrations of 2.5 µM, 5.0 µM, and 10 µM and added to each well. Arachidonic acid, a 110 µL substrate, was added to start the reaction, and the plate was shaken for at least five minutes. In order to interrupt enzyme catalysis and advance the reaction, 100 µL of chromogen was added to each well and made in accordance with the manufacturer’s instructions. In blank wells, 100 µL of assay buffer (0.1 M Tris-HCl, pH 7.4) was utilized. […] The solution’s absorbance was determined at λ 490–500 nm. The percentage inhibition was calculated according to the following equation:% inhibition = [(IA − Ainhibitor sample)/IA] × 100(1) where (IA) is the 100% initial activity and (Ainhibitor sample) is the absorbance of the test sample. A dose-response curve was plotted between % inhibition and the drug concentration. The non-linear dose-response curve was used for calculating drug concentration showing 50% enzyme inhibition.
SMILES,Lipid Peroxidation IC50 [1] [µg/mL],DPPH IC50 [2],H2O2 IC50 [3] [µg/mL],melting point [°C],IC50 (Soybean 15-LOX enzyme) [µM]
"O=C1O[C@H]([C@@H](O)CO)C(O)=C1O [Ascorbic acid, reference compound]",36.0 ± 1.30,12.80 ± 0.90 µg/mL,23.0 ± 1.37,,
"CC(=O)c1cccc(NS(=O)(=O)c2c[nH]c(=S)[nH]c2=O)c1 [Compound 3, N-(3-Acetylphenyl)-4-oxo-2-thioxo-1,2,3,4-tetrahydropyrimidine-5-sulfonamide]",>100,80.0 ± 0.70 µg/mL,>100,318 to 320,
"O=C(C=Cc1cccc([N+](=O)[O-])c1)c1cccc(NS(=O)(=O)c2c[nH]c(=S)[nH]c2=O)c1 [Compound 4a, N-{3-[(2E)-3-(3-nitrophenyl)prop-2-enoyl]phenyl}-4-oxo-2-thioxo-1,2,3,4-tetrahydro pyrimidine-5-sulfonamide]",>100,50.5 ± 0.79 µg/mL,>100,240 to 242,
"O=C(/C=C/c1cccc(Cl)c1)c1cccc(NS(=O)(=O)c2c[nH]c(=S)[nH]c2=O)c1 [Compound 4b, N-{3-[(2E)-3-(3-chlorophenyl)prop-2-enoyl]phenyl}-4-oxo-2-thioxo-1,2,3,4-tetra hydropyrimidine-5-sulfonamide]",>100,44.3 ± 1.67 µg/mL,95.0 ± 1.40,283 to 285,
"O=C(/C=C/c1cccc(F)c1)c1cccc(NS(=O)(=O)c2c[nH]c(=S)[nH]c2=O)c1 [Compound 4c, N-{3-[(2E)-3-(3-fluorophenyl)prop-2-enoyl]phenyl}-4-oxo-2-thioxo-1,2,3,4-tetra hydropyrimidine-5-sulfonamide]",>100,43.0 ± 0.50 µg/mL,>100,270 to 272,
"Cc1cccc(/C=C/C(=O)c2cccc(NS(=O)(=O)c3c[nH]c(=S)[nH]c3=O)c2)c1 [Compound 4d, N-{3-[(2E)-3-(3-methylphenyl)prop-2-enoyl]phenyl}-4-oxo-2-thioxo-1,2,3,4-tetra hydropyrimidine-5-sulfonamide]",>100,40.0 ± 1.70 µg/mL,80.0 ± 0.70,287 to 289,
"CNC(=S)NN=C(C)c1cccc(NS(=O)(=O)c2c[nH]c(=S)[nH]c2=O)c1 [Compound 5a, N-{3-[(1E)-N-(methylcarbamothionyl)ethanhydrazonoyl]phenyl}-4-oxo-2-thioxo-1,2,3,4-tetrahydropyrimidine-5-sulfonamide]",90.0 ± 1.45,14.50 ± 0.72 µg/mL,41.0 ± 1.53,305 to 307,5.79 ± 0.01
"CCNC(=S)NN=C(C)c1cccc(NS(=O)(=O)c2c[nH]c(=S)[nH]c2=O)c1 [Compound 5b, N-{3-[(1E)-N-(ethylcarbamothionyl)ethanhydrazonoyl]phenyl}-4-oxo-2-thioxo-1,2,3,4-tetrahydropyrimidine-5-sulfonamide]",85.0 ± 1.03,14.70 ± 0.22 µg/mL and 14.00 ± 0.22 µg/mL,40.0 ± 1.32,310 to 312,5.7 ± 0.03
"COc1ccc(NC(=S)NN=C(C)c2cccc(NS(=O)(=O)c3c[nH]c(=S)[nH]c3=O)c2)cc1 [Compound 5c, N-{3-[(1E)-N-(4-methoxycarbamothionyl)ethanhydrazonoyl]phenyl}-4-oxo-2-thioxo-1,2,3,4-tetrahydropyrimidine-5-sulfonamides]",82.0 ± 1.40,9.0 ± 1.10 µg/mL,45.05 ± 1.34,307 to 309,5.5 ± 0.02
"CC(=NNC(=S)Nc1ccc(F)cc1)c1cccc(NS(=O)(=O)c2c[nH]c(=S)[nH]c2=O)c1 [Compound 5d, N-{3-[(1E)-N-(4-fluorocarbamothionyl)ethanhydrazonoyl]phenyl}-4-oxo-2-thioxo-1,2,3,4-tetrahydropyrimidine-5-sulfonamides]",95.0 ± 1.42,14.72 ± 1.11 µg/mL,47.0 ± 1.38,313 to 315,5.9 ± 0.06
"N#Cc1c(-c2cccc([N+](=O)[O-])c2)cc(-c2cccc(NS(=O)(=O)c3c[nH]c(=S)[nH]c3=O)c2)[nH]c1=O [Compound 6a, N-{3-[5-cyano-4-(3-nitrophenyl)-6-oxo-1,6-dihydropyridin-2-yl]phenyl}-4-oxo-2-thioxo-1,2,3,4-tetrahydropyrimidine-5-sulfonamide]",45.0 ± 1.52,28.0 ± 1.06 µg/mL,31.0 ± 1.30,266 to 268,7.85 ± 0.01
"N#Cc1c(-c2cccc(Cl)c2)cc(-c2cccc(NS(=O)(=O)c3c[nH]c(=S)[nH]c3=O)c2)[nH]c1=O [Compound 6b, N-{3-[5-cyano-4-(3-chlorophenyl)-6-oxo-1,6-dihydropyridin-2-yl]phenyl}-4-oxo-2-thioxo-1,2,3,4-tetrahydropyrimidine-5-sulfonamide]",40.0 ± 1.63,22.0 ± 1.18 µg/mL,30.0 ± 1.21,272 to 274,7.6 ± 0.05
"N#Cc1c(-c2cccc(F)c2)cc(-c2cccc(NS(=O)(=O)c3c[nH]c(=S)[nH]c3=O)c2)[nH]c1=O [Compound 6c, N-{3-[5-cyano-4-(3-fluorophenyl)-6-oxo-1,6-dihydropyridin-2-yl]phenyl}-4-oxo-2-thioxo-1,2,3,4-tetrahydropyrimidine-5-sulfonamide]",39.0 ± 1.46,21.7 ± 0.7 µg/mL,29.0 ± 1.03,287 to 289,7.8 ± 0.02
"O=C(CBr)c1cccc(NS(=O)(=O)c2c[nH]c(=S)[nH]c2=O)c1 [Compound 8, N-[3-(bromoacetyl)phenyl]-4-oxo-2-thioxo-1,2,3,4-tetrahydropyrimidine-5-sulfonamide]",>100,70.27 ± 1.17 µg/mL,>100,305 to 307,
